Data taken from ChEMBL document CHEMBL4507275, “Data for DCP probe BI-2545” (2021).

Legend:
[1] = biological target: Myosin light chain kinase 2, skeletal/cardiac muscle (Homo sapiens) (UniProt Q9H1R3); conditions: Compound concentration 1000.0 nM
[2] = biological target: Tyrosine-protein kinase Yes (Homo sapiens) (UniProt P07947); conditions: Compound concentration 1000.0 nM
[3] = biological target: Hepatocyte growth factor receptor (Homo sapiens) (UniProt P08581); conditions: Compound concentration 1000.0 nM
[4] = biological target: Mitogen-activated protein kinase kinase kinase 3 (Homo sapiens) (UniProt Q99759); conditions: Compound concentration 1000.0 nM
[5] = biological target: Calcium/calmodulin-dependent protein kinase kinase 1 (Homo sapiens) (UniProt Q8N5S9); conditions: Compound concentration 1000.0 nM
[6] = biological target: Serine/threonine-protein kinase B-raf (Homo sapiens) (UniProt P15056); conditions: Compound concentration 1000.0 nM
[7] = biological target: T1, Muscarinic acetylcholine receptor M2 (Homo sapiens) (UniProt P08172); conditions: Compound concentration 10.0 uM
T1 sequence (whole entry): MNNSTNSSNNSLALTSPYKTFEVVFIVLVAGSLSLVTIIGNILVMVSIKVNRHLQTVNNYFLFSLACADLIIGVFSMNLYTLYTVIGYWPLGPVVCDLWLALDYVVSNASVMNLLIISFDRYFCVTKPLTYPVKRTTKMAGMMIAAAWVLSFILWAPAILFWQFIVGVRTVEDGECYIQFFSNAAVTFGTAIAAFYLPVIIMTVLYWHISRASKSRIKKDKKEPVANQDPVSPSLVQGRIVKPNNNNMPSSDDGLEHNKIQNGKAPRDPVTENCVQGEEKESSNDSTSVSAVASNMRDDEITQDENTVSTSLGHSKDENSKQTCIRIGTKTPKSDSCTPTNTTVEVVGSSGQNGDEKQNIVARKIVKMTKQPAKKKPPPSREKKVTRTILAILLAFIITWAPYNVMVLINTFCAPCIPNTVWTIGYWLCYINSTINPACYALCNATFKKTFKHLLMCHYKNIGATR

[8] = biological target: Serine/threonine-protein kinase ICK (Homo sapiens) (UniProt Q9UPZ9); conditions: Compound concentration 1000.0 nM
[9] = biological target: AP2-associated protein kinase 1 (Homo sapiens) (UniProt Q2M2I8); conditions: Compound concentration 1000.0 nM
AP2-associated protein kinase 1 (Homo sapiens), sequence (Q2M2I8 whole entry, looked up): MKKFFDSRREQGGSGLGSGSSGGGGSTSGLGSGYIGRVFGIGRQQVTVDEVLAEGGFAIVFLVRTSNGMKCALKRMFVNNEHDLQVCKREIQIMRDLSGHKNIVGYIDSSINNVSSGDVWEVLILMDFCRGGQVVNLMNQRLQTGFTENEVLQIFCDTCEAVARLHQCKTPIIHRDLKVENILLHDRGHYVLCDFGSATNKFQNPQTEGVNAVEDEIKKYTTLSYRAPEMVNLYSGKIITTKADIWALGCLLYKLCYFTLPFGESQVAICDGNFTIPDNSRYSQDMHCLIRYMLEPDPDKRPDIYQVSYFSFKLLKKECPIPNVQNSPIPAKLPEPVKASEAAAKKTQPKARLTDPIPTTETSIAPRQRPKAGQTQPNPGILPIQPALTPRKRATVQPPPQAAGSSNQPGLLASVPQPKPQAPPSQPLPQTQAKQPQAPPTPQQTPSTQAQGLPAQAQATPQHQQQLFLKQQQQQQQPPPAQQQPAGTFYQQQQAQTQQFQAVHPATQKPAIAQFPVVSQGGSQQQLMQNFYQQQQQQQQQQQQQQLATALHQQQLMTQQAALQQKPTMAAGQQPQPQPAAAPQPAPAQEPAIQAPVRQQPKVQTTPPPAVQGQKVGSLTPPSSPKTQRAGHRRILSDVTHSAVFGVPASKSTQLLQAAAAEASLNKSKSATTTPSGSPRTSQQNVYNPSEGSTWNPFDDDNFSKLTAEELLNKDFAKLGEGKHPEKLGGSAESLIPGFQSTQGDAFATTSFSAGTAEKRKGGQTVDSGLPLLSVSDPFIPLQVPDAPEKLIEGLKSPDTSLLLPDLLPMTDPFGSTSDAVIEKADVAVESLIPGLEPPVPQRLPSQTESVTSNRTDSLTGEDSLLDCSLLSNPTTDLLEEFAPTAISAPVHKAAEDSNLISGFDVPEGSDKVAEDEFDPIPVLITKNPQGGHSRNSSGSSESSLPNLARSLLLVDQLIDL

[10] = biological target: Hormonally up-regulated neu tumor-associated kinase (Homo sapiens) (UniProt P57058); conditions: Compound concentration 1000.0 nM
Hormonally up-regulated neu tumor-associated kinase (Homo sapiens), sequence (P57058 whole entry): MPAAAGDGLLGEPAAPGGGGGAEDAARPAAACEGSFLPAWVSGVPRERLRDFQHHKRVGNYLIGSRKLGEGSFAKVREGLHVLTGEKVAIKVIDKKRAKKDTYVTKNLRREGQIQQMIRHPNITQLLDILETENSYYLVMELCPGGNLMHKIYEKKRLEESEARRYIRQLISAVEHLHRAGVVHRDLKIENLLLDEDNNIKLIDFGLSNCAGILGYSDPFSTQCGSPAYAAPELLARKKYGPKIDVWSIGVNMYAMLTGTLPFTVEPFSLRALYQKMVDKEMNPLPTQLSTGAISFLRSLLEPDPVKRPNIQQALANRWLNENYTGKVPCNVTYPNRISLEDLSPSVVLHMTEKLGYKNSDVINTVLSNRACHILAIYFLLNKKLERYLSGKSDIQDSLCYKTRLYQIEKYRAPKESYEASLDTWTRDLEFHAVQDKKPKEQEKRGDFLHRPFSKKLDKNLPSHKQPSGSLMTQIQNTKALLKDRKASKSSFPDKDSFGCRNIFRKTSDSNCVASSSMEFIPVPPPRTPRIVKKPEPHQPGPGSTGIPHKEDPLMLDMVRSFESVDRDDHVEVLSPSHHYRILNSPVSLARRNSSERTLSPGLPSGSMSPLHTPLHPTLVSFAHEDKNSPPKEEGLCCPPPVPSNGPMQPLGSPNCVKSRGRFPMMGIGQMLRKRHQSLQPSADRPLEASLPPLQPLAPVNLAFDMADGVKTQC

[11] = biological target: Serine/threonine-protein kinase pim-2 (Homo sapiens) (UniProt Q9P1W9); conditions: Compound concentration 1000.0 nM
Serine/threonine-protein kinase pim-2 (Homo sapiens), sequence (Q9P1W9 whole entry, looked up): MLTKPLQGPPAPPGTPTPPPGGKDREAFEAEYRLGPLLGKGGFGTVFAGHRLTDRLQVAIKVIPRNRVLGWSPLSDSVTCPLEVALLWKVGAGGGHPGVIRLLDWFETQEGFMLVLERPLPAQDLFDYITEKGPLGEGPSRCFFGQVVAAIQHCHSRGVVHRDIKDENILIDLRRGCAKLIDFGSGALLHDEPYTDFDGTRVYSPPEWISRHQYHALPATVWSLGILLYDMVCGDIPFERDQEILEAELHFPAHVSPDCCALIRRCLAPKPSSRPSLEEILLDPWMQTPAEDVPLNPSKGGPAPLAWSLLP

[12] = biological target: Delta-type opioid receptor (Homo sapiens) (UniProt P41143); conditions: Compound concentration 10.0 uM
[13] = biological target: Phosphorylase b kinase regulatory subunit alpha, liver isoform (Homo sapiens) (UniProt P46019); conditions: Compound concentration 1000.0 nM
[14] = biological target: Cyclin-dependent kinase 9 (Homo sapiens) (UniProt P50750); conditions: Compound concentration 1000.0 nM
[15] = tested on: Epidermal growth factor receptor (Homo sapiens), P00533 [UNDEFINED MUTATION]; conditions: Compound concentration 1000.0 nM
[16] = biological target: Serine/threonine-protein kinase 24 (Homo sapiens) (UniProt Q9Y6E0); conditions: Compound concentration 1000.0 nM
[17] = tested on: Mast/stem cell growth factor receptor Kit (Homo sapiens), P10721 [V559D,T670I]; conditions: Compound concentration 1000.0 nM
[18] = biological target: Receptor-type tyrosine-protein kinase FLT3 (Homo sapiens) (UniProt P36888); conditions: Compound concentration 1000.0 nM
[19] = biological target: D(1B) dopamine receptor (Homo sapiens) (UniProt P21918); conditions: Compound concentration 10.0 uM
D(1B) dopamine receptor (Homo sapiens), sequence (P21918 whole entry): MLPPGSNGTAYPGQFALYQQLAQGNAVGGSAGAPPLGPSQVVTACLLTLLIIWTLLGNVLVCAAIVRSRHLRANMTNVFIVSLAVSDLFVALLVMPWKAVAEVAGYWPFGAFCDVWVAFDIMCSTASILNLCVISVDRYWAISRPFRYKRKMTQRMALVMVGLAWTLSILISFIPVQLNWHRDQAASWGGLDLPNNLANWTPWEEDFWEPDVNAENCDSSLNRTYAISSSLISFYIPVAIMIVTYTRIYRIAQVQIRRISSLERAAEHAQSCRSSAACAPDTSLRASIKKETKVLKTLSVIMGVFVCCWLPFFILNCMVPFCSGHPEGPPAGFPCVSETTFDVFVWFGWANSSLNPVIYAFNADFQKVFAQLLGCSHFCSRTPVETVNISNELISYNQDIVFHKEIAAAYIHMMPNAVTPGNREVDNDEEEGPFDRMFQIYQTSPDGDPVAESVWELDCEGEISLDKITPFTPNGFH

[20] = biological target: Macrophage colony-stimulating factor 1 receptor (Homo sapiens) (UniProt P07333); conditions: Compound concentration 1000.0 nM
[21] = biological target: Serine/threonine-protein kinase SIK1 (Homo sapiens) (UniProt P57059); conditions: Compound concentration 1000.0 nM
[22] = biological target: Ribosomal protein S6 kinase beta-1 (Homo sapiens) (UniProt P23443); conditions: Compound concentration 1000.0 nM
[23] = tested on: Tyrosine-protein kinase ABL1 (Homo sapiens), P00519 [Q252H]; conditions: Compound concentration 1000.0 nM
[24] = biological target: Bone morphogenetic protein receptor type-2 (Homo sapiens) (UniProt Q13873); conditions: Compound concentration 1000.0 nM
[25] = biological target: Ephrin type-A receptor 7 (Homo sapiens) (UniProt Q15375); conditions: Compound concentration 1000.0 nM
Ephrin type-A receptor 7 (Homo sapiens), sequence (Q15375 28-998 limits assumed): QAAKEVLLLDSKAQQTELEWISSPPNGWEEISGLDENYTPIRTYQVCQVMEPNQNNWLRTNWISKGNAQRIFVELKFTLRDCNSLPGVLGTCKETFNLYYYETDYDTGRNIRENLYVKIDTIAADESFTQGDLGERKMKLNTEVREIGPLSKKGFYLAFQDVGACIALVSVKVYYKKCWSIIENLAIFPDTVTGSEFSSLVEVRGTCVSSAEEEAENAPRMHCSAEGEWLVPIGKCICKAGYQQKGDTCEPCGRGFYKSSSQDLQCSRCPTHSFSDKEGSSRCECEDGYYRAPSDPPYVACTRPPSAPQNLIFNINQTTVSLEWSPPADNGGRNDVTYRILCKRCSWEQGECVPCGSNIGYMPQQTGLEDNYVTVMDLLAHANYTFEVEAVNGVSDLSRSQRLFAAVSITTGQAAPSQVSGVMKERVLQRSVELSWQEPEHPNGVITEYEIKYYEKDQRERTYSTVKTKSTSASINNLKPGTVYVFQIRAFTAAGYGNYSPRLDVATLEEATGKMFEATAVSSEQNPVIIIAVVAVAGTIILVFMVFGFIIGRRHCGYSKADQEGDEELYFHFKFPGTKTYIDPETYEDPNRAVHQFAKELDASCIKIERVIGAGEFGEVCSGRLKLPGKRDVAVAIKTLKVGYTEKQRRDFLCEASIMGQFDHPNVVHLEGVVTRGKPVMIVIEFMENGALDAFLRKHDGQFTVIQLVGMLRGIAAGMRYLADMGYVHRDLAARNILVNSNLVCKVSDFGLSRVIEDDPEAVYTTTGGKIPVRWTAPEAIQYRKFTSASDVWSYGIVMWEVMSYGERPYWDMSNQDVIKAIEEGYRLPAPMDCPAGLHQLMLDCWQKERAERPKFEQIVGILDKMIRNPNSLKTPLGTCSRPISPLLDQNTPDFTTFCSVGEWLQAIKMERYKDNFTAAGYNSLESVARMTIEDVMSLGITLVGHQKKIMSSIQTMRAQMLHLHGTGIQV

[26] = biological target: Vascular endothelial growth factor receptor 1 (Homo sapiens) (UniProt P17948); conditions: Compound concentration 1000.0 nM
[27] = biological target: High affinity nerve growth factor receptor (Homo sapiens) (UniProt P04629); conditions: Compound concentration 1000.0 nM
[28] = biological target: Serine/threonine-protein kinase DCLK2 (Homo sapiens) (UniProt Q8N568); conditions: Compound concentration 1000.0 nM
[29] = biological target: Receptor tyrosine-protein kinase erbB-3 (Homo sapiens) (UniProt P21860); conditions: Compound concentration 1000.0 nM
[30] = biological target: Ribosomal protein S6 kinase alpha-2 (Homo sapiens) (UniProt Q15349); conditions: Compound concentration 1000.0 nM
[31] = biological target: Calcium/calmodulin-dependent protein kinase type IV (Homo sapiens) (UniProt Q16566); conditions: Compound concentration 1000.0 nM
Calcium/calmodulin-dependent protein kinase type IV (Homo sapiens), sequence (Q16566 whole entry): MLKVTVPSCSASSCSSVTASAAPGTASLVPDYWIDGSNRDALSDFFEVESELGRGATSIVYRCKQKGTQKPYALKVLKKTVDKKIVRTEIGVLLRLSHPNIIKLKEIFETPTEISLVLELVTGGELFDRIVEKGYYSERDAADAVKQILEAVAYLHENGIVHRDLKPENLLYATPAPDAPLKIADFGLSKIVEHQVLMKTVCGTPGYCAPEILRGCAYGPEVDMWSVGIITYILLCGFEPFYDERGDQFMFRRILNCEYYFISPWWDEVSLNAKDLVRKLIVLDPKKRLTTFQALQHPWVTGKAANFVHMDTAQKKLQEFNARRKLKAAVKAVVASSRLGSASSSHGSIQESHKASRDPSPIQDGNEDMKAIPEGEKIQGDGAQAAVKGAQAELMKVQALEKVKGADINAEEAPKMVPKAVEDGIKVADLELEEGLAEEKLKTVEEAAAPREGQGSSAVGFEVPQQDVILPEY

[32] = biological target: Serine/threonine-protein kinase RIO1 (Homo sapiens) (UniProt Q9BRS2); conditions: Compound concentration 1000.0 nM
[33] = biological target: Phosphatidylinositol 4,5-bisphosphate 3-kinase catalytic subunit beta isoform (Homo sapiens) (UniProt P42338); conditions: Compound concentration 1000.0 nM
[34] = biological target: Muscarinic acetylcholine receptor M4 (Homo sapiens) (UniProt P08173); conditions: Compound concentration 10.0 uM
[35] = biological target: 5-hydroxytryptamine receptor 6 (Homo sapiens) (UniProt P50406); conditions: Compound concentration 10.0 uM
[36] = biological target: Tyrosine-protein kinase Srms (Homo sapiens) (UniProt Q9H3Y6); conditions: Compound concentration 1000.0 nM
[37] = biological target: Calcium/calmodulin-dependent protein kinase type II subunit alpha (Homo sapiens) (UniProt Q9UQM7); conditions: Compound concentration 1000.0 nM
Calcium/calmodulin-dependent protein kinase type II subunit alpha (Homo sapiens), sequence (Q9UQM7 whole entry): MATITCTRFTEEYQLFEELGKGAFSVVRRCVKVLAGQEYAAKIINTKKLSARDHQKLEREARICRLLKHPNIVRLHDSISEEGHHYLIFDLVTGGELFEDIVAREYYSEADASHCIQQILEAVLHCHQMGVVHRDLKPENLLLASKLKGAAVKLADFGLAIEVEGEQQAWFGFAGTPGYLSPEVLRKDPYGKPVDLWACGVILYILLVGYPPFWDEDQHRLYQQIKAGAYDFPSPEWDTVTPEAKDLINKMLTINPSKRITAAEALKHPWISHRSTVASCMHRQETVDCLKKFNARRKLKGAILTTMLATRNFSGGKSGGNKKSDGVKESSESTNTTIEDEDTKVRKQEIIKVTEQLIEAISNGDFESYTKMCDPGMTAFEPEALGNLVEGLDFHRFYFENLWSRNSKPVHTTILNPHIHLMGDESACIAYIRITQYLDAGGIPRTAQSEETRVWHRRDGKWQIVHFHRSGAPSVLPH

[38] = biological target: RAF proto-oncogene serine/threonine-protein kinase (Homo sapiens) (UniProt P04049); conditions: Compound concentration 1000.0 nM
RAF proto-oncogene serine/threonine-protein kinase (Homo sapiens), sequence (P04049 whole entry): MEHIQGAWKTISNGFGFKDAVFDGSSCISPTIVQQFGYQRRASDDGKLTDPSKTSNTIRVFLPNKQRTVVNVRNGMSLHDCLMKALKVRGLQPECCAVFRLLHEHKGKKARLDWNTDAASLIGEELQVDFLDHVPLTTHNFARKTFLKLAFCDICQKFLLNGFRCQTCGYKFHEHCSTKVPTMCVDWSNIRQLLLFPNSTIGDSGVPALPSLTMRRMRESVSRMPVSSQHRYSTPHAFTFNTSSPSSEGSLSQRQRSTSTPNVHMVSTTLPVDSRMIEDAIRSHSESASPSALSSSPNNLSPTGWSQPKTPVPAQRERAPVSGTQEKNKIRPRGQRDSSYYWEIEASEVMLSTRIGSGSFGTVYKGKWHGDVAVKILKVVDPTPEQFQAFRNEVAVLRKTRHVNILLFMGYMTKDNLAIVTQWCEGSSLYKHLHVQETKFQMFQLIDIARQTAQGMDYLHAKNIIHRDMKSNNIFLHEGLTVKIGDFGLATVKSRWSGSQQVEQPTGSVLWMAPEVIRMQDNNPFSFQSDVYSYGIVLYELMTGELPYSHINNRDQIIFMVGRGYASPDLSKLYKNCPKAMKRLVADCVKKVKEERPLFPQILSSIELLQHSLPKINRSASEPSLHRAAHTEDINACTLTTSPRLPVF

[39] = biological target: Mitogen-activated protein kinase 7 (Homo sapiens) (UniProt Q13164); conditions: Compound concentration 1000.0 nM

| SMILES | residual activity [1] [%] | residual activity [2] [%] | residual activity [3] [%] | residual activity [4] [%] | residual activity [5] [%] | residual activity [6] [%] | inhibition [7] [%] | residual activity [8] [%] | residual activity [9] [%] | residual activity [10] [%] | residual activity [11] [%] | inhibition [12] [%] | residual activity [13] [%] | residual activity [14] [%] | residual activity [15] [%] | residual activity [16] [%] | residual activity [17] [%] | residual activity [18] [%] | inhibition [19] [%] | residual activity [20] [%] | other results |
| --- | --- | --- | --- | --- | --- | --- | --- | --- | --- | --- | --- | --- | --- | --- | --- | --- | --- | --- | --- | --- | --- |
| O=C(NC[C@@H]1[C@H]2CN(C(=O)OCc3cc(C(F)(F)F)cc(C(F)(F)F)c3)C[C@@H]12)c1ccc2[nH]nnc2c1 [BI 2545] | 97 | 100 | 100 | 94 | 91 | 98 | 7.11 | 100 | 96 | 100 | 100 | 19.6 | 100 | 91 | 72 | 90 | 100 | 93 | 21.6 | 99 | residual activity [21]: 100%; residual activity [22]: 86%; residual activity [23]: 78%; residual activity [24]: 90%; residual activity [25]: 96%; residual activity [26]: 82%; residual activity [27]: 85%; residual activity [28]: 100%; residual activity [29]: 96%; residual activity [30]: 100%; residual activity [31]: 100%; residual activity [32]: 69%; residual activity [33]: 100%; inhibition [34]: 14.2%; inhibition [35]: 28.9%; residual activity [36]: 83%; residual activity [37]: 91%; residual activity [38]: 100%; residual activity [39]: 100% |
| Cc1nccc(COC(=O)N2C[C@@H]3[C@@H](CNC(=O)c4ccc5[nH]nnc5c4)[C@@H]3C2)n1 [BI 3017] | 90 | 100 | 94 | 91 | 100 | 84 | -5.6 | 100 | 100 | 81 | 0 | -1.41 | 97 | 100 | 100 | 90 | 95 | 89 | 16.4 | 88 | residual activity [21]: 98%; residual activity [22]: 84%; residual activity [23]: 100%; residual activity [24]: 81%; residual activity [25]: 89%; residual activity [26]: 100%; residual activity [27]: 94%; residual activity [28]: 100%; residual activity [29]: 59%; residual activity [30]: 100%; residual activity [31]: 95%; residual activity [32]: 100%; residual activity [33]: 84%; inhibition [34]: 16.1%; inhibition [35]: 26.1%; residual activity [36]: 87%; residual activity [37]: 65%; residual activity [38]: 94%; residual activity [39]: 98% |
